Laboratory results reported in publication PMC9403976, “Elucidating the path to Plasmodium prolyl-tRNA synthetase inhibitors that overcome halofuginone resistance” (Nature Communications, 2022).
Several values for one entry are separate records, joined by “and”; a condition that tells them apart may be missing. Equal values may be shown once. Read-outs that look alike come from different tables or passages of the source.

Experiments:
PfcProRS = molecular target: T1, PfcProRS (Plasmodium falciparum, UniProt Q8I5R7); format: binding; settings: single replicates
T1 construct: made in house; host or cells: E. coli SoluBL-21
T1 sequence (Q8I5R7 249-746): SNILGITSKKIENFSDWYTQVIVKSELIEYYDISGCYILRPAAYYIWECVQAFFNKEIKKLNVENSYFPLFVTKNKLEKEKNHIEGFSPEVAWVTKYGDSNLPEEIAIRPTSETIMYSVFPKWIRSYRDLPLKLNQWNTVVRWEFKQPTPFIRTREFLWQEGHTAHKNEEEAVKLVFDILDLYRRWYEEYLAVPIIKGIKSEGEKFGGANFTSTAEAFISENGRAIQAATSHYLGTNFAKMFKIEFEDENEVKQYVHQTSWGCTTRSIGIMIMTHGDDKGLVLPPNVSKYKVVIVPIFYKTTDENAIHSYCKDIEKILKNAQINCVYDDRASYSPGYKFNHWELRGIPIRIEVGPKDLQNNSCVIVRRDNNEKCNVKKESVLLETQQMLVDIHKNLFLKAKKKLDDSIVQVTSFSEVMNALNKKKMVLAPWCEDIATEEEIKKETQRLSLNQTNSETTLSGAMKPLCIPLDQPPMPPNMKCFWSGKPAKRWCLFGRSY

HsProRS = HsProRS (Homo sapiens, UniProt P07814); test: TR-FRET ligand displacement assay with tracer MAT379 (CoraFluor-1-Halo and anti-His6 antibody formats); format: binding; set-up: made in house; host or cells: E. coli SoluBL-21; settings: for TR-FRET dose-response, normalized signal (SI Fig 11): individual replicates
Chain of HsProRS (P07814 996-1512): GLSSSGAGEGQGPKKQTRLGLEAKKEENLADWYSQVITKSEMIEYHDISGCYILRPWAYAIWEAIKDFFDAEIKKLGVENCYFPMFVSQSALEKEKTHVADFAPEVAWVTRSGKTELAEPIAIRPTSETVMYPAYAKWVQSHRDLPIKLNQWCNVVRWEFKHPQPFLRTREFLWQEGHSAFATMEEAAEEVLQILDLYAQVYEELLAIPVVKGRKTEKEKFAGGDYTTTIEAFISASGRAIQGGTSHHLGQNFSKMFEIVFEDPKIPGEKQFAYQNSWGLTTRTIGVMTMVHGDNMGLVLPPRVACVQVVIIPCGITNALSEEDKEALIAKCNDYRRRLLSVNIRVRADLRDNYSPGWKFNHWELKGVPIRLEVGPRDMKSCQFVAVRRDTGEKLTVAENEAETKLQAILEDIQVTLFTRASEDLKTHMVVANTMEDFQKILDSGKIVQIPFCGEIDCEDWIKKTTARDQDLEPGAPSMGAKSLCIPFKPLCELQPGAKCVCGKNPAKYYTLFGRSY

NCC1CCN(C(=O)Nc2nccnc2C(=O)NC2Cc3ccccc3C2)CC1 [compound 10]
dose-response signal (normalized), SI Fig 8 (PfcProRS; Log[inhibitor] (M) -5.000): 6.00E-01 and 6.56E-01 and 6.73E-01
dose-response signal (normalized), SI Fig 8 (PfcProRS; Log[inhibitor] (M) -5.301): 9.19E-01 and 8.61E-01 and 8.50E-01
dose-response signal (normalized), SI Fig 8 (PfcProRS; Log[inhibitor] (M) -5.601): 9.17E-01 and 9.92E-01 and 9.34E-01
dose-response signal (normalized), SI Fig 8 (PfcProRS; Log[inhibitor] (M) -5.904): 9.34E-01 and 1.02E+00 and 9.14E-01
dose-response signal (normalized), SI Fig 8 (PfcProRS; Log[inhibitor] (M) -6.208): 1.16E+00 and 1.11E+00 and 8.47E-01
dose-response signal (normalized), SI Fig 8 (PfcProRS; Log[inhibitor] (M) -6.509): 1.03E+00 and 1.08E+00 and 9.82E-01
dose-response signal (normalized), SI Fig 8 (PfcProRS; Log[inhibitor] (M) -6.796): 9.55E-01 and 9.28E-01 and 9.85E-01
dose-response signal (normalized), SI Fig 8 (PfcProRS; Log[inhibitor] (M) -7.108): 9.16E-01 and 1.02E+00 and 1.03E+00
dose-response signal (normalized), SI Fig 8 (PfcProRS; Log[inhibitor] (M) -7.409): 1.06E+00 and 1.03E+00 and 1.09E+00
dose-response signal (normalized), SI Fig 8 (PfcProRS; Log[inhibitor] (M) -7.710): 8.76E-01 and 1.01E+00 and 9.98E-01
dose-response signal (normalized), SI Fig 8 (PfcProRS; Log[inhibitor] (M) -8.000): 1.02E+00 and 1.09E+00 and 1.14E+00
dose-response signal (normalized), SI Fig 8 (PfcProRS; Log[inhibitor] (M) -8.301): 1.04E+00 (2×) and 9.07E-01
dose-response signal (normalized), SI Fig 8 (PfcProRS; Log[inhibitor] (M) -8.602): 1.06E+00 and 9.87E-01 and 1.02E+00
dose-response signal (normalized), SI Fig 8 (PfcProRS; Log[inhibitor] (M) -9.000): 9.95E-01 and 1.10E+00 and 1.11E+00
dose-response signal (normalized), SI Fig 8 (PfcProRS; Log[inhibitor] (M) -9.301): 9.71E-01 and 8.41E-01 and 1.04E+00
IC50 (HsProRS): > 10 µM
Kd (HsProRS; HsProRS (KD [nM]) + 100 μM proline mean, + 100 μM proline): 1360 nM
normalized TR-FRET ligand displacement signal, dose-response replicates (SI Fig 6) (HsProRS; Log[inhibitor] (M) -5.000): 7.52E-01 and 7.79E-01 and 7.62E-01
TR-FRET dose-response, normalized signal (SI Fig 11) (HsProRS; Log[inhibitor] (M) -5.000): 6.05E-01 and 5.95E-01 and 6.36E-01
normalized TR-FRET ligand displacement signal, dose-response replicates (SI Fig 6) (HsProRS; Log[inhibitor] (M) -5.301): 8.20E-01 and 8.88E-01 and 8.92E-01
TR-FRET dose-response, normalized signal (SI Fig 11) (HsProRS; Log[inhibitor] (M) -5.301): 6.96E-01 and 7.22E-01 and 7.09E-01
normalized TR-FRET ligand displacement signal, dose-response replicates (SI Fig 6) (HsProRS; Log[inhibitor] (M) -5.601): 9.12E-01 (2×) and 9.52E-01
TR-FRET dose-response, normalized signal (SI Fig 11) (HsProRS; Log[inhibitor] (M) -5.601): 8.44E-01 and 7.94E-01 and 8.38E-01
normalized TR-FRET ligand displacement signal, dose-response replicates (SI Fig 6) (HsProRS; Log[inhibitor] (M) -5.904): 1.12E+00 and 9.84E-01 and 8.91E-01
TR-FRET dose-response, normalized signal (SI Fig 11) (HsProRS; Log[inhibitor] (M) -5.904): 8.92E-01 and 8.20E-01 and 8.24E-01
normalized TR-FRET ligand displacement signal, dose-response replicates (SI Fig 6) (HsProRS; Log[inhibitor] (M) -6.208): 9.97E-01 and 8.76E-01 and 9.90E-01
TR-FRET dose-response, normalized signal (SI Fig 11) (HsProRS; Log[inhibitor] (M) -6.208): 8.69E-01 and 8.29E-01 and 9.13E-01
normalized TR-FRET ligand displacement signal, dose-response replicates (SI Fig 6) (HsProRS; Log[inhibitor] (M) -6.509): 9.61E-01 and 1.04E+00 and 9.10E-01
TR-FRET dose-response, normalized signal (SI Fig 11) (HsProRS; Log[inhibitor] (M) -6.509): 9.27E-01 and 8.13E-01 and 9.47E-01
normalized TR-FRET ligand displacement signal, dose-response replicates (SI Fig 6) (HsProRS; Log[inhibitor] (M) -6.796): 1.04E+00 and 1.06E+00 and 1.01E+00
TR-FRET dose-response, normalized signal (SI Fig 11) (HsProRS; Log[inhibitor] (M) -6.796): 9.41E-01 and 8.80E-01 and 8.81E-01
normalized TR-FRET ligand displacement signal, dose-response replicates (SI Fig 6) (HsProRS; Log[inhibitor] (M) -7.108): 1.05E+00 and 9.51E-01 and 1.07E+00
TR-FRET dose-response, normalized signal (SI Fig 11) (HsProRS; Log[inhibitor] (M) -7.108): 8.72E-01 and 9.00E-01 and 8.74E-01
normalized TR-FRET ligand displacement signal, dose-response replicates (SI Fig 6) (HsProRS; Log[inhibitor] (M) -7.409): 8.85E-01 and 9.14E-01 and 8.87E-01
TR-FRET dose-response, normalized signal (SI Fig 11) (HsProRS; Log[inhibitor] (M) -7.409): 8.90E-01 and 8.97E-01 and 8.75E-01
normalized TR-FRET ligand displacement signal, dose-response replicates (SI Fig 6) (HsProRS; Log[inhibitor] (M) -7.710): 9.64E-01 (2×) and 8.88E-01
TR-FRET dose-response, normalized signal (SI Fig 11) (HsProRS; Log[inhibitor] (M) -7.710): 8.83E-01 and 8.58E-01 and 9.38E-01
normalized TR-FRET ligand displacement signal, dose-response replicates (SI Fig 6) (HsProRS; Log[inhibitor] (M) -8.000): 9.97E-01 and 1.02E+00 and 9.70E-01
TR-FRET dose-response, normalized signal (SI Fig 11) (HsProRS; Log[inhibitor] (M) -8.000): 9.01E-01 and 9.27E-01 and 9.34E-01
normalized TR-FRET ligand displacement signal, dose-response replicates (SI Fig 6) (HsProRS; Log[inhibitor] (M) -8.301): 9.79E-01 and 9.25E-01 and 8.62E-01
TR-FRET dose-response, normalized signal (SI Fig 11) (HsProRS; Log[inhibitor] (M) -8.301): 8.32E-01 and 8.76E-01 and 8.86E-01
normalized TR-FRET ligand displacement signal, dose-response replicates (SI Fig 6) (HsProRS; Log[inhibitor] (M) -8.602): 1.04E+00 and 9.88E-01 and 8.85E-01
TR-FRET dose-response, normalized signal (SI Fig 11) (HsProRS; Log[inhibitor] (M) -8.602): 8.91E-01 and 9.03E-01 and 9.02E-01
normalized TR-FRET ligand displacement signal, dose-response replicates (SI Fig 6) (HsProRS; Log[inhibitor] (M) -9.000): 9.73E-01 and 8.88E-01 and 1.05E+00
TR-FRET dose-response, normalized signal (SI Fig 11) (HsProRS; Log[inhibitor] (M) -9.000): 9.24E-01 and 8.78E-01 and 8.94E-01
normalized TR-FRET ligand displacement signal, dose-response replicates (SI Fig 6) (HsProRS; Log[inhibitor] (M) -9.301): 9.62E-01 and 9.69E-01 and 9.04E-01
TR-FRET dose-response, normalized signal (SI Fig 11) (HsProRS; Log[inhibitor] (M) -9.301): 9.15E-01 and 8.48E-01 and 8.61E-01
HsProRS % signal at 10 μM (HsProRS; no added proline/ATP (-), 10 μM): 61.2%
